According to the NIST ThermoML archive (doi:10.1021/acs.jced.5b00931):
± gives the expanded uncertainty stated by the source.

[1] = 333.15 K; 101.33 kPa; Liquid; Falling or rolling sphere viscometry
[2] = 333.15 K; 101.33 kPa; Liquid; Vibrating tube method
[3] = 338.15 K; 101.33 kPa; Liquid; Falling or rolling sphere viscometry
[4] = 338.15 K; 101.33 kPa; Liquid; Vibrating tube method
[5] = 343.15 K; 101.33 kPa; Liquid; Falling or rolling sphere viscometry
[6] = 343.15 K; 101.33 kPa; Liquid; Vibrating tube method
[7] = 348.15 K; 101.33 kPa; Liquid; Falling or rolling sphere viscometry
[8] = 348.15 K; 101.33 kPa; Liquid; Vibrating tube method
[9] = 353.15 K; 101.33 kPa; Liquid; Falling or rolling sphere viscometry
[10] = 353.15 K; 101.33 kPa; Liquid; Vibrating tube method
[11] = 358.15 K; 101.33 kPa; Liquid; Falling or rolling sphere viscometry
[12] = 358.15 K; 101.33 kPa; Liquid; Vibrating tube method
[13] = 363.13 K; 101.33 kPa; Liquid; Vibrating tube method
[14] = 363.15 K; 101.33 kPa; Liquid; Falling or rolling sphere viscometry

`CCCC[N+]1(C)CCCC1.O=S(=O)([O-])C(F)(F)F` [1-butyl-1-methylpyrrolidinium trifluoromethanesulfonate] showed a viscosity (293.15 K; 101.33 kPa; Liquid; Falling or rolling sphere viscometry) of 217 ± 24 mPa·s, a mass density (293.15 K; 101.33 kPa; Liquid; Vibrating tube method) of 1255.7 ± 2 kg/m3 and a viscosity (298.15 K; 101.33 kPa; Liquid; Falling or rolling sphere viscometry) of 164 ± 18 mPa·s. The mass density (298.15 K; 101.33 kPa; Liquid; Vibrating tube method) was 1252 ± 2 kg/m3, the viscosity (303.15 K; 101.33 kPa; Liquid; Falling or rolling sphere viscometry) was 128 ± 13 mPa·s and the mass density (303.15 K; 101.33 kPa; Liquid; Vibrating tube method) was 1248.3 ± 2 kg/m3. The viscosity (308.15 K; 101.33 kPa; Liquid; Falling or rolling sphere viscometry) was 101 ± 10 mPa·s, the mass density (308.15 K; 101.33 kPa; Liquid; Vibrating tube method) was 1244.7 ± 2 kg/m3 and the viscosity (313.15 K; 101.33 kPa; Liquid; Falling or rolling sphere viscometry) was 80.7 ± 8.2 mPa·s. The mass density (313.15 K; 101.33 kPa; Liquid; Vibrating tube method) was 1241 ± 2 kg/m3, the viscosity (318.15 K; 101.33 kPa; Liquid; Falling or rolling sphere viscometry) was 65.7 ± 6.6 mPa·s and the mass density (318.15 K; 101.33 kPa; Liquid; Vibrating tube method) was 1237.4 ± 2 kg/m3. The viscosity (323.15 K; 101.33 kPa; Liquid; Falling or rolling sphere viscometry) was 54.3 ± 5.4 mPa·s, the mass density (323.15 K; 101.33 kPa; Liquid; Vibrating tube method) was 1233.8 ± 2 kg/m3 and the viscosity (328.15 K; 101.33 kPa; Liquid; Falling or rolling sphere viscometry) was 42.4 ± 4.3 mPa·s. The mass density (328.15 K; 101.33 kPa; Liquid; Vibrating tube method) was 1230.2 ± 2 kg/m3, the viscosity [1] was 35.7 ± 3.6 mPa·s and the mass density [2] was 1226.7 ± 2 kg/m3. For the same compound, the viscosity [3] was 30.4 ± 3.1 mPa·s, the mass density [4] was 1223.1 ± 2 kg/m3 and the viscosity [5] was 26.1 ± 2.6 mPa·s. It also gave a mass density [6] of 1219.6 ± 2 kg/m3, a viscosity [7] of 22.7 ± 2.3 mPa·s and a mass density [8] of 1216.1 ± 2 kg/m3. The viscosity [9] was 19.8 ± 2 mPa·s, the mass density [10] was 1212.6 ± 2 kg/m3 and the viscosity [11] was 17.4 ± 1.7 mPa·s. For the same compound, the mass density [12] was 1209 ± 2 kg/m3, the mass density [13] was 1205.5 ± 2 kg/m3 and the viscosity [14] was 15.5 ± 1.6 mPa·s.
Work on `CCCC[N+]1(C)CCCCC1.O=S(=O)([O-])C(F)(F)F` [1-butyl-1-methylpiperidinium trifluoromethanesulfonate] yielded a viscosity [1] of 107 ± 11 mPa·s, a mass density [2] of 1216.8 ± 2 kg/m3 and a viscosity [3] of 84.6 ± 8.6 mPa·s. The mass density [4] was 1213.3 ± 2 kg/m3, the viscosity [5] was 67.8 ± 6.8 mPa·s and the mass density [6] was 1209.8 ± 2 kg/m3. The viscosity [7] was 55.2 ± 5.5 mPa·s, the mass density [8] was 1206.4 ± 2 kg/m3 and the viscosity [9] was 45.6 ± 4.6 mPa·s. The mass density [10] was 1202.9 ± 2 kg/m3, the viscosity [11] was 38 ± 3.8 mPa·s and the mass density [12] was 1199.5 ± 2 kg/m3. The mass density [13] was 1196.1 ± 2 kg/m3 and the viscosity [14] was 32 ± 3.2 mPa·s.
Compound `CCCC[n+]1cccc(C)c1.O=S(=O)([O-])C(F)(F)F` [1-butyl-3-methylpyridinium trifluoromethanesulfonate] has a viscosity (293.15 K; 101.33 kPa; Falling or rolling sphere viscometry; Liquid) of 165 ± 18 mPa·s, a mass density (293.15 K; 101.33 kPa; Vibrating tube method; Liquid) of 1279 ± 2 kg/m3 and a viscosity (298.15 K; 101.33 kPa; Falling or rolling sphere viscometry; Liquid) of 126 ± 13 mPa·s. The mass density (298.15 K; 101.33 kPa; Vibrating tube method; Liquid) was 1275.2 ± 2 kg/m3, the viscosity (303.15 K; 101.33 kPa; Falling or rolling sphere viscometry; Liquid) was 95.7 ± 9.8 mPa·s and the mass density (303.15 K; 101.33 kPa; Vibrating tube method; Liquid) was 1271.4 ± 2 kg/m3. The viscosity (308.15 K; 101.33 kPa; Falling or rolling sphere viscometry; Liquid) was 75.9 ± 7.7 mPa·s, the mass density (308.15 K; 101.33 kPa; Vibrating tube method; Liquid) was 1267.6 ± 2 kg/m3 and the viscosity (313.15 K; 101.33 kPa; Falling or rolling sphere viscometry; Liquid) was 60.2 ± 6 mPa·s. It also gave a mass density (313.15 K; 101.33 kPa; Vibrating tube method; Liquid) of 1263.8 ± 2 kg/m3, a viscosity (318.15 K; 101.33 kPa; Falling or rolling sphere viscometry; Liquid) of 45.8 ± 4.6 mPa·s and a mass density (318.15 K; 101.33 kPa; Vibrating tube method; Liquid) of 1260 ± 2 kg/m3. It also gave a viscosity (323.15 K; 101.33 kPa; Falling or rolling sphere viscometry; Liquid) of 37.6 ± 3.8 mPa·s, a mass density (323.15 K; 101.33 kPa; Vibrating tube method; Liquid) of 1256.2 ± 2 kg/m3 and a viscosity (328.15 K; 101.33 kPa; Falling or rolling sphere viscometry; Liquid) of 31.4 ± 3.2 mPa·s. The mass density (328.15 K; 101.33 kPa; Vibrating tube method; Liquid) was 1252.5 ± 2 kg/m3, the viscosity (333.15 K; 101.33 kPa; Falling or rolling sphere viscometry; Liquid) was 26.3 ± 2.6 mPa·s and the mass density (333.15 K; 101.33 kPa; Vibrating tube method; Liquid) was 1248.7 ± 2 kg/m3. The viscosity (338.15 K; 101.33 kPa; Falling or rolling sphere viscometry; Liquid) was 22.6 ± 2.3 mPa·s, the mass density (338.15 K; 101.33 kPa; Vibrating tube method; Liquid) was 1245 ± 2 kg/m3 and the viscosity (343.15 K; 101.33 kPa; Falling or rolling sphere viscometry; Liquid) was 19.4 ± 1.9 mPa·s. The mass density (343.15 K; 101.33 kPa; Vibrating tube method; Liquid) was 1241.2 ± 2 kg/m3, the viscosity (348.15 K; 101.33 kPa; Falling or rolling sphere viscometry; Liquid) was 16.9 ± 1.7 mPa·s and the mass density (348.15 K; 101.33 kPa; Vibrating tube method; Liquid) was 1237.5 ± 2 kg/m3. It also gave a viscosity (353.15 K; 101.33 kPa; Falling or rolling sphere viscometry; Liquid) of 14.9 ± 1.5 mPa·s, a mass density (353.15 K; 101.33 kPa; Vibrating tube method; Liquid) of 1233.8 ± 2 kg/m3 and a viscosity (358.15 K; 101.33 kPa; Falling or rolling sphere viscometry; Liquid) of 13.1 ± 1.3 mPa·s. It also gave a mass density (358.15 K; 101.33 kPa; Vibrating tube method; Liquid) of 1230.1 ± 2 kg/m3, a mass density (363.13 K; 101.33 kPa; Vibrating tube method; Liquid) of 1226.5 ± 2 kg/m3 and a viscosity (363.15 K; 101.33 kPa; Falling or rolling sphere viscometry; Liquid) of 11.6 ± 1.2 mPa·s.
